Laboratory results from ChEMBL document CHEMBL1125927, “New isomeric classes of topically active ocular hypotensive carbonic anhydrase inhibitors: 5-substituted thieno[2,3-b]thiophene-2-sulfonamides and 5-substituted thieno[3,2-b]thiophene-2-sulfonamides” (J Med Chem, 1991).
Several values for one entry are separate records, joined by “and”; a condition that tells them apart may be missing. Equal values may be shown once.

How the values were obtained:
physchem [1] = conditions: octanol/water, pH 7.4
Description: Partition coefficient (logD7.4)

Carbonic anhydrase 2 [2] = target: T1, Carbonic anhydrase 2 (Homo sapiens, UniProt P00918)
Description: In vitro inhibitory activity against human carbonic anhydrase II

physchem [3] = experiment: physchem
Description: Dissociation constant (pKa)

Carbonic anhydrase 2 [4] = target: T1, Carbonic anhydrase 2; remark: listed apart in the source
Description: In vitro binding affinity against human carbonic anhydrase II

Carbonic anhydrase 2 [5] = target: T1, Carbonic anhydrase 2; remark: listed apart in the source
Description: The compound was tested for in vitro binding affinity against human Carbonic anhydrase II

Carbonic anhydrase 2 [6] = target: T1, Carbonic anhydrase 2; remark: listed apart in the source
Description: The compound was tested for in vitro inhibitory activity against human Carbonic anhydrase II

Carbonic anhydrase 2 [7] = target: T1, Carbonic anhydrase 2; experiment: The compound was tested for in vitro inhibitory activity against human carbonic anhydrase II; conditions: read-out: I50
Oryctolagus cuniculus [8] = species: Oryctolagus cuniculus; experiment: Intraocular pressure studies in normotensive albino rabbits was performed; format: functional; also: test concentration or dose not given here
Oryctolagus cuniculus [9] = species: Oryctolagus cuniculus; experiment: Intraocular pressure studies in normotensive pigmented rabbits was performed; format: functional; also: test concentration or dose not given here
Oryctolagus cuniculus [10] = species: Oryctolagus cuniculus; experiment: Intraocular pressure studies were performed for the compound and compared with MK-927; format: functional; also: test concentration or dose not given here
Oryctolagus cuniculus [11] = species: Oryctolagus cuniculus; experiment: Intraocular pressure studies in hypertensive pigmented rabbits was performed; format: functional; also: test concentration or dose not given here
Carbonic anhydrase 2 [12] = target: T1, Carbonic anhydrase 2; experiment: The compound was tested for in vitro inhibitory activity against human carbonic anhydrase II.; conditions: read-out: I50

Description for Bos taurus: The binding to bovine iris and ciliary body pigment

| logD (physchem [1]) | IC50 (Carbonic anhydrase 2 [2]) [nM] | pKa (physchem [3]) | Ki (Carbonic anhydrase 2 [4]) [nM] | Compound | Pigment binding (Bos taurus) [%] | other results |
| --- | --- | --- | --- | --- | --- | --- |
| -0.137 | 6.5 | 7.4 |  | COCCOCCCNCc1cc2cc(S(N)(=O)=O)sc2s1.Cl | 87.5 |  |
|  | 0.5 |  | 1.54 | COCCOCCN(CCOC)C(C)c1cc2cc(S(N)(=O)=O)sc2s1 (centres undefined) |  |  |
| -0.721 | 6.3 | 7.18 |  | NS(=O)(=O)c1cc2cc(CNCCO)sc2s1 |  |  |
| 0.324 | 5 | 7 | 3.9 | COCCNCc1cc2cc(S(N)(=O)=O)sc2s1.Cl | 88 |  |
| -0.495 | 3.2 | 7.65 | 11.8 | CNCc1cc2sc(S(N)(=O)=O)cc2s1.Cl | 87.3 |  |
|  | 14 | 7.3 |  | NCc1cc2cc(S(N)(=O)=O)sc2s1 | 92 |  |
| -0.26 |  | 5.2 |  | CS(=O)(=O)CCNCc1cc2cc(S(N)(=O)=O)sc2s1.Cl | 56.8 | Ki (Carbonic anhydrase 2 [5]): 4.8 nM; IC50 (Carbonic anhydrase 2 [6]): 4.5 nM |
| -0.155 | 4.6 |  | 2.39 | C[S+]([O-])CCNC(=O)c1cc2cc(S(N)(=O)=O)sc2s1 (centres undefined) | 35.6 |  |
|  |  | 5.2 |  | CNC(=O)c1cc2cc(S(N)(=O)=O)sc2s1 |  |  |
| 1.56 | 2.5 | 5.48 | 0.95 | COCCN(CCOC)Cc1cc2sc(S(N)(=O)=O)cc2s1.Cl | 41.4 |  |
|  | 8.4 | 6.95 |  | NS(=O)(=O)c1cc2cc(CNC(CO)CO)sc2s1 |  |  |
|  | 2.5 |  |  | COCCN(CCNC(=O)c1cc2cc(S(N)(=O)=O)sc2s1)CCOC.Cl | 87.5 |  |
| 0.708 |  | 7.13 | 3.05 | COCCOCCNC(C)c1cc2cc(S(N)(=O)=O)sc2s1.Cl (centres undefined) | 71.9 | IC50 (Carbonic anhydrase 2 [7]): 0.7 nM |
|  |  |  |  | O=Cc1cc2ccsc2s1 |  | IOP (Oryctolagus cuniculus [8]): -1.3 mmHg; IOP (Oryctolagus cuniculus [9]): -1.6 mmHg |
| 0.111 | 4 | 4.23 | 3.4 | NS(=O)(=O)c1cc2cc(CN3CC[S+]([O-])CC3)sc2s1 |  |  |
| 1.17 |  | 5.75 |  | CC(C=O)N(Cc1cc2cc(S(N)(=O)=O)sc2s1)C(C)C=O.Cl (centres undefined) | 49.7 | Ki (Carbonic anhydrase 2 [5]): 1.49 nM; IC50 (Carbonic anhydrase 2 [6]): 2.71 nM |
| -0.538 | 3 | 8.02 |  | CNCc1cc2cc(S(N)(=O)=O)sc2s1.Cl | 92.1 | Ki (Carbonic anhydrase 2 [5]): 20.9 nM |

| logD (physchem [1]) | IC50 (Carbonic anhydrase 2 [2]) [nM] | pKa (physchem [3]) | Ki (Carbonic anhydrase 2 [4]) [nM] | Compound | Pigment binding (Bos taurus) [%] | other results |
| --- | --- | --- | --- | --- | --- | --- |
| 0.509 | 2.8 | 6.65 | 3.1 | COCCNCc1cc2sc(S(N)(=O)=O)cc2s1.Cl | 81.9 |  |
|  | 2.2 | 3.75 |  | Cl.NS(=O)(=O)c1cc2cc(CNCC(F)(F)F)sc2s1 | 21.1 |  |
| -0.347 | 3.2 |  | 3.4 | NS(=O)(=O)c1cc2cc(C(=O)NCC(O)CO)sc2s1 (centres undefined) | 36.7 |  |
| 1.14 | 2.8 | 5.55 | 1.58 | COCCOCCN(CCOC)Cc1cc2cc(S(N)(=O)=O)sc2s1.Cl | 38.5 | IOP (Oryctolagus cuniculus [8]): -3.3 mmHg; IOP (Oryctolagus cuniculus [10]): -5.3 mmHg; IOP (Oryctolagus cuniculus [11]): -4.4 mmHg; IOP (Oryctolagus cuniculus [9]): -4.8 mmHg |
| 0.992 |  | 5.72 |  | COCCOCCN(CCOCCOC)Cc1cc2cc(S(N)(=O)=O)sc2s1.Cl | 40.3 | Ki (Carbonic anhydrase 2 [5]): 2.77 nM; IC50 (Carbonic anhydrase 2 [6]): 3.95 nM |
| -0.398 | 8.8 | 7.48 | 11 | CN(C)CCNC(=O)c1cc2cc(S(N)(=O)=O)sc2s1.Cl | 97 |  |
| 0.23 | 2.27 | 5.5 | 2.6 | Cl.NS(=O)(=O)c1cc2cc(CN(CCO)CCO)sc2s1 | 71.8 |  |
| 0.204 | 4.9 | 7.52 |  | COCCCNCc1cc2cc(S(N)(=O)=O)sc2s1.Cl | 85.4 |  |
| -0.678 | 3 | 7.7 |  | NS(=O)(=O)c1cc2cc(CNCCCCO)sc2s1 |  |  |
|  | 6.6 |  | 9 | NS(=O)(=O)c1cc2cc(C(=O)N(CCO)CCO)sc2s1 |  |  |
| -0.0757 |  | 8.28 | 36.8 | CC(C)(C)NCc1cc2cc(S(N)(=O)=O)sc2s1 |  | IC50 (Carbonic anhydrase 2 [12]): 10 nM |
| -0.444 | 8.4 | 5.58 | 5.5 | C[S+]([O-])CCNCc1cc2cc(S(N)(=O)=O)sc2s1.Cl (centres undefined) | 67.5 |  |
|  |  |  |  | COC(=O)CSc1sccc1C1OCCO1 |  | IOP (Oryctolagus cuniculus [8]): -1.4 mmHg; IOP (Oryctolagus cuniculus [10]): -3.9 mmHg and -4.8 mmHg; IOP (Oryctolagus cuniculus [11]): -2.1 mmHg; IOP (Oryctolagus cuniculus [9]): -1.6 mmHg |
| 0.924 | 2.5 | 7.9 | 4.4 | CC(C)CNCc1cc2cc(S(N)(=O)=O)sc2s1 |  |  |
| 1.24 | 2.8 | 7.6 | 2.7 | CC(C)CNCc1cc2sc(S(N)(=O)=O)cc2s1.Cl | 86.5 |  |
|  |  |  |  | OCc1cc2ccsc2s1 |  | IOP (Oryctolagus cuniculus [8]): -3 mmHg |

| Compound | logD (physchem [1]) | IC50 (Carbonic anhydrase 2 [2]) [nM] | pKa (physchem [3]) | Ki (Carbonic anhydrase 2 [4]) [nM] | Pigment binding (Bos taurus) [%] | other results |
| --- | --- | --- | --- | --- | --- | --- |
| Cl.NS(=O)(=O)c1cc2cc(CN3CCOCC3)sc2s1 | 1.17 | 3 | 5.25 | 1.1 | 42.9 |  |
| Cl.NS(=O)(=O)c1cc2cc(C(=O)NCCN3CCOCC3)sc2s1 | 0.587 | 2.9 | 5.8 | 6.38 | 91.6 |  |
| Cl.NS(=O)(=O)c1cc2cc(CNCCF)sc2s1 | 0.702 | 2.7 | 6.4 | 1.98 | 81.9 |  |
| Cl.NS(=O)(=O)c1cc2cc(C(=O)NCCN3CCSCC3)sc2s1 | 1.5 | 2.9 | 6.03 | 4.02 | 96.4 |  |
| COCCN(CCOC)Cc1cc2cc(S(N)(=O)=O)sc2s1.Cl | 1.58 | 4.2 | 5.34 | 1.34 | 50 | IOP (Oryctolagus cuniculus [8]): -2.6 mmHg; IOP (Oryctolagus cuniculus [10]): -4.6 mmHg; IOP (Oryctolagus cuniculus [9]): -4.1 mmHg |
| NS(=O)(=O)c1cc2cc(CNCC3CC3)sc2s1 | 0.398 | 3.3 | 7.72 | 6.7 |  |  |
| Cl.NS(=O)(=O)c1cc2cc(CN3CCSCC3)sc2s1 | 1.14 | 2.6 | 5.05 | 0.44 | 69.9 |  |
| COCCOCCN(CCOC)C(Cc1ccc(F)cc1)c1cc2cc(S(N)(=O)=O)sc2s1 (centres undefined) |  | 1.15 |  | 6.54 |  |  |
